Where two headings read alike, the source gives them in different places.

Experiment [1] addresses recombinant human IL-17AA (Homo sapiens, UniProt Q16552). Kind of experiment: IL-6 release from NHDF cells, IL-17AA plus TNF-α stimulation. The experiment is classed as cell-based. The note with it: IL-17AA 30 pM plus TNF-α 6 pM, 24 hours, IL-6 by ELISA. In outline: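 ELISA measured IL-6 in supernatants after 24 h at 37° C of NHDF cells with a compound/cytokine cocktail, pre-mixed 30 min at room temperature. Duplicates; 0.1% DMSO or 20% plasma final. IC50 from IL-6 remaining after subtracting the TNF-α-alone signal.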

Experiment [2] concerns the target biotinylated human IL-17A / AF647-labeled human IL-17RA (Homo sapiens, UniProt Q16552). Kind of experiment: Human IL-17A×IL-17RA TR-FRET assay. Format: binding. The note with it: biotinylated human IL-17A 5 nM, AF647-labeled human IL-17RA 30 nM. In outline: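 Compounds tested in duplicate at each concentration; neutral controls contain all components with DMSO in place of compound.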

Setting [3] is: NHDF cells, read-out: IL17AA + TNF IC50 IL-6.
[4] abbreviates: TR-FRET, read-out: IL17AA FRET/ IL17Rawt IC50.

Sequence of recombinant human IL-17AA (Q16552 24-155): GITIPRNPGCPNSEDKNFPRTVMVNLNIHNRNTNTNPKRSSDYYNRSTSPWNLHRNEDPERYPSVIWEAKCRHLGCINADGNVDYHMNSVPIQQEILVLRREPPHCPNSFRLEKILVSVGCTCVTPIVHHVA
Sequence of biotinylated human IL-17A / AF647-labeled human IL-17RA (Q16552 24-155): as above

Turning to `Cc1c(-c2ccc(NC(=O)[C@@H](NC(=O)c3ccnn3C)C3CCC(F)(F)CC3)cc2)c(Cl)cc[n+]1[O-]` [Example 52, (S)-4-chloro-3-(4-(2-(4,4-difluorocyclohexyl)-2-(1-methyl-1H-pyrazole-5-carboxamido)acetamido)phenyl)-2-methylpyridine 1-oxide], the results for the IC50 in experiment [1] (setting [3]) and in experiment [2] (setting [4]) were 80 nM and 43 nM, respectively.

For the compound `Cc1cc[n+]([O-])c(C)c1-c1ccc(NC(=O)[C@@H](NC(=O)c2ccoc2C)C2CCCCC2)cc1` [Example 53, (S)-3-(4-(2-cyclohexyl-2-(2-methylfuran-3-carboxamido)acetamido)phenyl)-2,4-dimethylpyridine 1-oxide], the IC50 is 86 nM in experiment [1] (setting [3]) and 16 nM in experiment [2] (setting [4]).

Regarding `Cc1c(-c2ccc(NC(=O)[C@@H](NC(=O)c3ccnn3C)C3CC=C(F)CC3)cc2)c(Cl)cc[n+]1[O-]` (stereo partly drawn) [Example 55, 4-chloro-3-(4-((2S)-2-(4-fluorocyclohex-3-en-1-yl)-2-(1-methyl-1H-pyrazole-5-carboxamido)acetamido)phenyl)-2-methylpyridine 1-oxide], the IC50 turned out to be 27 nM in experiment [1] (setting [3]) and 38 nM in experiment [2] (setting [4]).

Regarding `Cc1c(-c2ccc(NC(=O)C(NC(=O)c3ccnn3C)C3CCC(C)CC3)cc2F)c(Cl)cc[n+]1[O-]` [Example 56, 4-chloro-3-(2-fluoro-4-((S)-2-(1-methyl-1H-pyrazole-5-carboxamido)-2-((1r,4S)-4-methylcyclohexyl)acetamido)phenyl)-2-methylpyridine 1-oxide], the IC50 is 4 nM in experiment [1] (IL17AA + TNF IC50 IL-6, NHDF cells) and 21 nM in experiment [2] (IL17AA FRET/ IL17Rawt IC50, TR-FRET).

As for `Cc1nocc1C(=O)NC(C(=O)Nc1ccc(-c2c(Cl)cc[n+]([O-])c2C)c(F)c1)[C@H]1C[C@@H]2C[C@@H]2C1` (stereo partly drawn) [Example 57, 3-(4-(2-((1R,3s,5S)-bicyclo[3.1.0]hexan-3-yl)-2-(3-methylisoxazole-4-carboxamido)acetamido)-2-fluorophenyl)-4-chloro-2-methylpyridine 1-oxide], the IC50 in experiment [1] (setting [3]) came to 12 nM; in experiment [2] (setting [4]) it was 37 nM.

Consider `CCn1nccc1C(=O)NC(C(=O)Nc1ccc(-c2c(Cl)cc[n+]([O-])c2C)c(F)c1)[C@H]1C[C@@H]2C[C@@H]2C1` (stereo partly drawn) [Example 58, 3-(4-(2-((1R,3s,5S)-bicyclo[3.1.0]hexan-3-yl)-2-(1-ethyl-1H-pyrazole-5-carboxamido)acetamido)-2-fluorophenyl)-4-chloro-2-methylpyridine 1-oxide], for which the IC50 in experiment [1] (setting [3]) was 12 nM; in experiment [2] (setting [4]), 44 nM.

For `Cc1c(-c2ccc(NC(=O)[C@@H](NC(=O)c3ccnn3C)C3CCCCC3)c(F)c2)c(Cl)cc[n+]1[O-]` [Example 59, (S)-4-chloro-3-(4-(2-cyclohexyl-2-(1-methyl-1H-pyrazole-5-carboxamido)acetamido)-3-fluorophenyl)-2-methylpyridine 1-oxide], the IC50 in experiment [1] (setting [3]) was found to be 56 nM; in experiment [2] (setting [4]), 49 nM.

Take `Cc1c(-c2ccc(NC(=O)[C@@H](NC(=O)c3ccnn3C)C3CCCCC3)nc2)c(Cl)cc[n+]1[O-]` [Example 60, (S)-4-chloro-6′-(2-cyclohexyl-2-(1-methyl-1H-pyrazole-5-carboxamido)acetamido)-2-methyl-[3,3′-bipyridine] 1-oxide]: the results for the IC50 in experiment [1] (setting [3]) and in experiment [2] (setting [4]) were 236 nM and 123 nM, respectively.

Consider `Cc1c(-c2c(F)cc(NC(=O)[C@@H](NC(=O)c3ccnn3C)C3CCCCC3)cc2F)c(Cl)cc[n+]1[O-]` [Example 61, (S)-4-chloro-3-(4-(2-cyclohexyl-2-(1-methyl-1H-pyrazole-5-carboxamido)acetamido)-2,6-difluorophenyl)-2-methylpyridine 1-oxide], for which the results for the IC50 in experiment [1] (setting [3]) and in experiment [2] (setting [4]) were 16 nM and 18 nM, respectively.

On to `Cc1c(-c2ccc(NC(=O)[C@@H](NC(=O)c3ccnn3C)C3CCCCC3)c(F)c2F)c(Cl)cc[n+]1[O-]` [Example 62, 4-chloro-3-(4-((S)-2-cyclohexyl-2-(1-methyl-1H-pyrazole-5-carboxamido)acetamido)-2,3-difluorophenyl)-2-methylpyridine 1-oxide], for which the IC50 in experiment [1] (setting [3]) was 7 nM; in experiment [2] (setting [4]) it was 15 nM.

Consider `Cc1c(-c2cc(F)c(NC(=O)[C@@H](NC(=O)c3ccnn3C)C3CCCCC3)cc2F)c(Cl)cc[n+]1[O-]` [Example 63, 4-chloro-3-(4-((S)-2-cyclohexyl-2-(1-methyl-1H-pyrazole-5-carboxamido)acetamido)-2,5-difluorophenyl)-2-methylpyridine 1-oxide], for which the IC50 in experiment [1] (setting [3]) came out at 57 nM; in experiment [2] (setting [4]), 247 nM.

In the case of `Cc1c(-c2ccc(NC(=O)[C@@H](NC(=O)c3ccnn3C)C3CC=C(F)CC3)cc2)c(C(F)(F)F)cc[n+]1[O-]` (stereo partly drawn) [Example 65, 3-(4-((2S)-2-(4-fluorocyclohex-3-en-1-yl)-2-(1-methyl-1H-pyrazole-5-carboxamido)acetamido)phenyl)-2-methyl-4-(trifluoromethyl)pyridine 1-oxide], the IC50 in experiment [1] (setting [3]) is 24 nM; in experiment [2] (setting [4]) it was 57 nM.

For the compound `Cc1c(-c2ccc(NC(=O)[C@@H](NC(=O)c3ccnn3C)C3CCCCC3)cc2F)c(C(F)(F)F)cc[n+]1[O-]` [Example 66, 3-(4-((S)-2-cyclohexyl-2-(1-methyl-1H-pyrazole-5-carboxamido)acetamido)-2-fluorophenyl)-2-methyl-4-(trifluoromethyl)pyridine 1-oxide], the figures for the IC50 in experiment [1] (setting [3]) and in experiment [2] (setting [4]) were 4 nM and 18 nM, respectively.

Turning to `Cc1c(-c2ccc(NC(=O)[C@@H](NC(=O)c3ccnn3C)C3CCCCC3)cc2)c(C(F)(F)F)cc[n+]1[O-]` [Example 67, (S)-3-(4-(2-cyclohexyl-2-(1-methyl-1H-pyrazole-5-carboxamido)acetamido)phenyl)-2-methyl-4-(trifluoromethyl)pyridine 1-oxide], the IC50 stood at 15 nM in experiment [1] (setting [3]) and 124 nM in experiment [2] (setting [4]).

`Cc1cc[n+]([O-])c(C)c1-c1ccc(NC(=O)[C@@H](NC(=O)c2ccnn2C(C)C)C(c2ccccc2)c2ccccc2)cc1` [Example 68, (S)-3-(4-(2-(1-isopropyl-1H-pyrazole-5-carboxamido)-3,3-diphenylpropanamido)phenyl)-2,4-dimethylpyridine 1-oxide]: the IC50 in experiment [1] (setting [3]) is 16 nM; in experiment [2] (setting [4]) it was 76 nM.

With `Cc1c(-c2ccc(NC(=O)[C@@H](NC(=O)c3ccnn3C)C(c3ccccc3)c3ccccc3)cc2)c(Cl)cc[n+]1[O-]` [Example 69, (S)-4-chloro-2-methyl-3-(4-(2-(1-methyl-1H-pyrazole-5-carboxamido)-3,3-diphenylpropanamido)phenyl)pyridine 1-oxide], the figures for the IC50 in experiment [1] (setting [3]) and in experiment [2] (setting [4]) were 20 nM and 90 nM, respectively.

In the case of `CCn1nccc1C(=O)NC(C(=O)Nc1ccc(-c2c(Cl)cc[n+]([O-])c2C)cc1)C1CC2CC2C1` (stereo not shown) [Example 70, 3-(4-(2-(bicyclo[3.1.0]hexan-3-yl)-2-(1-ethyl-1H-pyrazole-5-carboxamido)acetamido)phenyl)-4-chloro-2-methylpyridine 1-oxide], the figures for the IC50 in experiment [1] (setting [3]) and in experiment [2] (setting [4]) were 26 nM and 84 nM, respectively.

On to `Cc1nocc1C(=O)NC(C(=O)Nc1ccc(-c2c(Cl)cc[n+]([O-])c2C)cc1)C1CC2CC2C1` (stereo not shown) [Example 71, 3-(4-(2-(bicyclo[3.1.0]hexan-3-yl)-2-(3-methylisoxazole-4-carboxamido)acetamido)phenyl)-4-chloro-2-methylpyridine 1-oxide], for which the figures for the IC50 in experiment [1] (setting [3]) and in experiment [2] (setting [4]) were 35 nM and 86 nM, respectively.

Regarding `Cc1cc[n+]([O-])c(C)c1-c1ccc(NC(=O)[C@H](Cc2ccccc2F)NC(=O)c2conc2C)cc1` [Example 72, (S)-3-(4-(3-(2-fluorophenyl)-2-(3-methylisoxazole-4-carboxamido)propanamido)phenyl)-2,4-dimethylpyridine 1-oxide], the IC50 came to 3400 nM in experiment [1] (setting [3]) and 454 nM in experiment [2] (setting [4]).

`Cc1cc[n+]([O-])c(C)c1-c1ccc(NC(=O)[C@H](Cc2ccccc2)NC(=O)c2conc2C)cc1` [Example 74, (S)-2,4-dimethyl-3-(4-(2-(3-methylisoxazole-4-carboxamido)-3-phenylpropanamido)phenyl)pyridine 1-oxide]: the IC50 was > 10000 nM in experiment [1] (setting [3]) and 1530 nM in experiment [2] (setting [4]).

On to `Cc1cc[n+]([O-])c(C)c1-c1ccc(NC(=O)[C@H](Cc2ccccc2)NC(=O)c2ccnn2C)cc1` [Example 75, (S)-2,4-dimethyl-3-(4-(2-(1-methyl-1H-pyrazole-5-carboxamido)-3-phenylpropanamido)phenyl)pyridine 1-oxide], for which the IC50 in experiment [1] (setting [3]) is > 10000 nM; in experiment [2] (setting [4]), 2640 nM.

Regarding `Cc1c(-c2ccc(NC(=O)[C@@H](NC(=O)c3ccnn3CCN(C)C)C3CCCCC3)cc2F)c(Cl)cc[n+]1[O-]` [Example 77, 4-chloro-3-(4-((S)-2-cyclohexyl-2-(1-(2-(dimethylamino)ethyl)-1H-pyrazole-5-carboxamido)acetamido)-2-fluorophenyl)-2-methylpyridine 1-oxide], the figures for the IC50 in experiment [1] (setting [3]) and in experiment [2] (setting [4]) were 151 nM and 436 nM, respectively.

Consider `Cc1c(-c2ccc(NC(=O)[C@@H](NC(=O)c3ccnn3C(C)C)C3CCCCC3)cc2F)ccc[n+]1[O-]` [Example 82, (S)-3-(4-(2-cyclohexyl-2-(1-isopropyl-1H-pyrazole-5-carboxamido)acetamido)-2-fluorophenyl)-2-methylpyridine 1-oxide], for which the IC50 in experiment [1] (setting [3]) amounted to 35 nM; in experiment [2] (setting [4]), 85 nM.
